Results published in PubChem BioAssay AID2060609 (Molecular Pharmacology Branch, DTP, NCI, 2025).
“And” between values parts separate entries of the source, which are not always exact repeats. Equal values may be shown once.

System: 855422-203-R-J1-PDC complex spheroids, viability
Assay: Anticancer human tumor 855422-203-R-J1-PDC patient-derived bladder carcinoma cell line growth inhibition [CLK]
Conditions: for viability, T/C: stronger effect = lower value; active = viability on the fitted dose curve at most 10% of control; inactive = the rest
Method in brief: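 Patient-derived tumor cells grown as complex spheroids with HUVEC endothelial cells and mesenchymal stem cells, treated with drug combinations. Concentrations descend in half-log steps from near clinical Cmax, or from 10 microM if Cmax unknown.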

[1] = curve of first compound, second compound 0.0316 µM
[2] = curve of first compound, second compound 0.1 µM
[3] = curve of first compound, second compound 0.316 µM
[4] = curve of first compound, second compound 1 µM
[5] = curve of first compound, second compound 3.16 µM
[6] = curve of first compound, second compound 10 µM
[7] = second compound 0.0316 µM, first compound 0.0316 µM
[8] = second compound 0.0316 µM, first compound 0.1 µM
[9] = second compound 0.0316 µM, first compound 0.316 µM
[10] = second compound 0.0316 µM, first compound 1 µM
[11] = second compound 0.0316 µM, first compound 3.16 µM
[12] = second compound 0.0316 µM, first compound 10 µM
[13] = second compound 0.1 µM, first compound 0.0316 µM
[14] = second compound 0.1 µM, first compound 0.1 µM
[15] = second compound 0.1 µM, first compound 0.316 µM
[16] = second compound 0.1 µM, first compound 1 µM
[17] = second compound 0.1 µM, first compound 3.16 µM
[18] = second compound 0.1 µM, first compound 10 µM
[19] = second compound 0.316 µM, first compound 0.0316 µM
[20] = second compound 0.316 µM, first compound 0.1 µM
[21] = second compound 0.316 µM, first compound 0.316 µM
[22] = second compound 0.316 µM, first compound 1 µM
[23] = second compound 0.316 µM, first compound 3.16 µM
[24] = second compound 0.316 µM, first compound 10 µM
[25] = second compound 1 µM, first compound 0.0316 µM
[26] = second compound 1 µM, first compound 0.1 µM
[27] = second compound 1 µM, first compound 0.316 µM
[28] = second compound 1 µM, first compound 1 µM
[29] = second compound 1 µM, first compound 3.16 µM
[30] = second compound 1 µM, first compound 10 µM
[31] = second compound 3.16 µM, first compound 0.0316 µM
[32] = second compound 3.16 µM, first compound 0.1 µM
[33] = second compound 3.16 µM, first compound 0.316 µM
[34] = second compound 3.16 µM, first compound 1 µM
[35] = second compound 3.16 µM, first compound 3.16 µM
[36] = second compound 3.16 µM, first compound 10 µM
[37] = second compound 10 µM, first compound 0.0316 µM
[38] = second compound 10 µM, first compound 0.1 µM
[39] = second compound 10 µM, first compound 0.316 µM
[40] = second compound 10 µM, first compound 1 µM
[41] = second compound 10 µM, first compound 3.16 µM
[42] = second compound 10 µM, first compound 10 µM
[43] = second compound 0.0316 µM, first compound 0.00316 µM
[44] = second compound 0.0316 µM, first compound 0.01 µM
[45] = second compound 0.1 µM, first compound 0.00316 µM
[46] = second compound 0.1 µM, first compound 0.01 µM
[47] = second compound 0.316 µM, first compound 0.00316 µM
[48] = second compound 0.316 µM, first compound 0.01 µM
[49] = second compound 1 µM, first compound 0.00316 µM
[50] = second compound 1 µM, first compound 0.01 µM
[51] = second compound 3.16 µM, first compound 0.00316 µM
[52] = second compound 3.16 µM, first compound 0.01 µM
[53] = second compound 10 µM, first compound 0.00316 µM
[54] = second compound 10 µM, first compound 0.01 µM
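Also: spheroids exposed to drugs for seven days before readout.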
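For viability, T/C in this document: 100% = DMSO vehicle control wells.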

CC(=O)O[C@H]1C(=O)[C@@]2(C)[C@H]([C@H](OC(=O)c3ccccc3)[C@]3(O)C[C@H](OC(=O)[C@H](O)[C@@H](NC(=O)c4ccccc4)c4ccccc4)C(C)=C1C3(C)C)[C@]1(OC(C)=O)CO[C@@H]1C[C@@H]2O
active: viability, T/C (compound 0.0316 µM) 7.73% and 9% | viability, T/C (compound 0.1 µM) 9.43% and 8.68% | viability, T/C (compound 0.316 µM) 9.33% and 9.1% | viability, T/C (compound 1 µM) 8.48% and 7.37% | viability, T/C (compound 3.16 µM) 8.93% and 7.1% | viability, T/C (compound 10 µM) 9.93% and 9.02%
< 31.6 nM: IC50 (curve of compound)

Nc1ccn(C2OC(CO)C(O)C2(F)F)c(=O)n1 (configuration not stated) + CNC(=O)c1ccc(Nc2nc(OC3CCCC3)c3c(-c4ccc5nc(C)oc5c4)c[nH]c3n2)c(OC)c1
active: viability, T/C [10] 8.48% | viability, T/C [11] 8.78% | viability, T/C [12] 6.08% | viability, T/C [16] 11.8% | viability, T/C [17] 7.27% | viability, T/C [18] 5.69% | viability, T/C [22] 10.3% | viability, T/C [23] 5.76% | viability, T/C [24] 5.3% | viability, T/C [29] 9.02% | viability, T/C [30] 6.99% | viability, T/C [35] 8.27% | viability, T/C [36] 6.69% | viability, T/C [41] 10.5% | viability, T/C [42] 5.99%
< 31.6 nM: IC50 [1] | IC50 [2] | IC50 [3] | IC50 [4] | IC50 [5] | IC50 [6]
inactive: viability, T/C [7] 26.9% | viability, T/C [8] 13.1% | viability, T/C [9] 13% | viability, T/C [13] 17.3% | viability, T/C [14] 12.1% | viability, T/C [15] 12.5% | viability, T/C [19] 17.4% | viability, T/C [20] 12.8% | viability, T/C [21] 12% | viability, T/C [25] 18.6% | viability, T/C [26] 21.8% | viability, T/C [27] 12.8% | viability, T/C [28] 10.1% | viability, T/C [31] 19.4% | viability, T/C [32] 16.6% | viability, T/C [33] 14.9% | viability, T/C [34] 10.2% | viability, T/C [37] 19.3% | viability, T/C [38] 16.4% | viability, T/C [39] 14.1% | viability, T/C [40] 9.84%

COc1ccc([C@@H](O)c2cc(-c3ncnc4cc(N5CCOCC5)ccc34)c(F)cc2Cl)nn1 + CNC(=O)c1ccc(Nc2nc(OC3CCCC3)c3c(-c4ccc5nc(C)oc5c4)c[nH]c3n2)c(OC)c1
< 31.6 nM: IC50 [3] | IC50 [4] | IC50 [5] | IC50 [6]
1460 nM: IC50 [2]
inactive: viability, T/C [7] 78.5% | viability, T/C [8] 118% | viability, T/C [9] 95.2% | viability, T/C [10] 82.7% | viability, T/C [11] 71.8% | viability, T/C [12] 31.1% | viability, T/C [13] 55.8% | viability, T/C [14] 55.2% | viability, T/C [15] 44.4% | viability, T/C [16] 47.9% | viability, T/C [17] 48.9% | viability, T/C [18] 22.9% | viability, T/C [19] 24% | viability, T/C [20] 23.9% | viability, T/C [21] 16.8% | viability, T/C [22] 19.2% | viability, T/C [23] 16.3% | viability, T/C [24] 12.3% | viability, T/C [25] 23.3% | viability, T/C [26] 24.6% | viability, T/C [27] 18.3% | viability, T/C [28] 17.4% | viability, T/C [29] 19.5% | viability, T/C [30] 12.1% | viability, T/C [31] 17.7% | viability, T/C [32] 17.7% | viability, T/C [33] 16.3% | viability, T/C [34] 22.1% | viability, T/C [35] 16.6% | viability, T/C [36] 12.4% | viability, T/C [37] 22.1% | viability, T/C [38] 20.9% | viability, T/C [39] 25.1% | viability, T/C [40] 18.4% | viability, T/C [41] 14.4% | viability, T/C [42] 8.91%
5740 nM: IC50 [1]

C=C(F)C(=O)N1CCN(c2nc(OCC3CCCN3C)nc3c2CCN(c2cccc4cccc(Cl)c24)C3)CC1CC#N (configuration not stated) + CN1CCN(c2cc(C(=O)Nc3cc4cc(-c5cnn(C)c5)ccc4cn3)ccn2)CC1
1980 nM: IC50 [2]
2460 nM: IC50 [1]
< 31.6 nM: IC50 [3] | IC50 [4] | IC50 [5] | IC50 [6]
active: viability, T/C [12] 0.22% | viability, T/C [18] 0.8% | viability, T/C [22] 14.6% | viability, T/C [23] 4.45% | viability, T/C [24] 0.07% | viability, T/C [25] 0.29% | viability, T/C [26] 0.34% | viability, T/C [27] 0.28% | viability, T/C [28] 0.26% | viability, T/C [29] 0.12% | viability, T/C [30] 1.08% | viability, T/C [31] 0.68% | viability, T/C [32] 0.91% | viability, T/C [33] 0.57% | viability, T/C [34] 0.77% | viability, T/C [35] 1.08% | viability, T/C [36] 0.11% | viability, T/C [37] 0.54% | viability, T/C [38] 0.51% | viability, T/C [39] 0.41% | viability, T/C [40] 0.42% | viability, T/C [41] 0.61% | viability, T/C [42] 0.22%
inactive: viability, T/C [7] 108% | viability, T/C [8] 110% | viability, T/C [9] 122% | viability, T/C [10] 115% | viability, T/C [11] 32% | viability, T/C [13] 89.1% | viability, T/C [14] 86% | viability, T/C [15] 87.3% | viability, T/C [16] 95.1% | viability, T/C [17] 22.8% | viability, T/C [19] 14.2% | viability, T/C [20] 14.4% | viability, T/C [21] 14.8%

CCN1CCN(Cc2ccc(Nc3ncc(F)c(-c4cc(F)c5nc(C)n(C(C)C)c5c4)n3)nc2)CC1 + CNC(=O)c1ccc(Nc2nc(OC3CCCC3)c3c(-c4ccc5nc(C)oc5c4)c[nH]c3n2)c(OC)c1
inactive: viability, T/C [43] 88% | viability, T/C [44] 90.2% | viability, T/C [7] 74.8% | viability, T/C [8] 56.8% | viability, T/C [9] 56.4% | viability, T/C [10] 46.2% | viability, T/C [45] 59.3% | viability, T/C [46] 48% | viability, T/C [13] 31.6% | viability, T/C [14] 33.7% | viability, T/C [15] 31.8% | viability, T/C [16] 37.3% | viability, T/C [47] 23.3% | viability, T/C [48] 27.7% | viability, T/C [19] 25.9% | viability, T/C [20] 20.9% | viability, T/C [21] 28.7% | viability, T/C [22] 30.9% | viability, T/C [49] 19.8% | viability, T/C [50] 23.9% | viability, T/C [25] 18% | viability, T/C [26] 22.9% | viability, T/C [27] 22.2% | viability, T/C [28] 23.9% | viability, T/C [51] 18.2% | viability, T/C [52] 23.4% | viability, T/C [31] 19.8% | viability, T/C [32] 18.6% | viability, T/C [33] 26.9% | viability, T/C [34] 22.7% | viability, T/C [53] 18.2% | viability, T/C [54] 22.1% | viability, T/C [37] 22.3% | viability, T/C [38] 24% | viability, T/C [39] 18.5% | viability, T/C [40] 20%
> 1000 nM: IC50 [1]
< 3.16 nM: IC50 [3] | IC50 [4] | IC50 [5] | IC50 [6]
6.4 nM: IC50 [2]

COc1c(OCCCN2CCOCC2)ccc2c3n(c(=NC(=O)c4cnc(N)nc4)nc12)CCN3 + CNC(=O)c1ccc(Nc2nc(OC3CCCC3)c3c(-c4ccc5nc(C)oc5c4)c[nH]c3n2)c(OC)c1
14.2 nM: IC50 [1]
6.2 nM: IC50 [2]
inactive: viability, T/C [43] 84.2% | viability, T/C [44] 58.8% | viability, T/C [7] 29.8% | viability, T/C [8] 10.1% | viability, T/C [45] 52% | viability, T/C [46] 49.5% | viability, T/C [13] 25.3% | viability, T/C [47] 17.3% | viability, T/C [48] 18.5% | viability, T/C [19] 8.61% | viability, T/C [49] 19.4% | viability, T/C [50] 16.5% | viability, T/C [51] 18.8% | viability, T/C [52] 14.2% | viability, T/C [31] 10.1% | viability, T/C [53] 16.3% | viability, T/C [54] 11.2%
active: viability, T/C [9] 4.15% | viability, T/C [10] 1.68% | viability, T/C [14] 9.48% | viability, T/C [15] 3.91% | viability, T/C [16] 2.07% | viability, T/C [20] 7.71% | viability, T/C [21] 3.19% | viability, T/C [22] 1.46% | viability, T/C [25] 7.5% | viability, T/C [26] 3.51% | viability, T/C [27] 7.67% | viability, T/C [28] 1.54% | viability, T/C [32] 7.42% | viability, T/C [33] 2.07% | viability, T/C [34] 1.38% | viability, T/C [37] 6.12% | viability, T/C [38] 4.26% | viability, T/C [39] 3.27% | viability, T/C [40] 1.62%
< 3.16 nM: IC50 [3] | IC50 [4] | IC50 [5] | IC50 [6]
